Laboratory results: patent US12240846B2 (Enliven Inc., priority 2020, dated 2025)

Legend:
K562 cells = test: K562 cell proliferation assay (CellTiter-Glo); type: cell-based; conditions: Homo sapiens, K562 cell viability, 72 hours, read-out: Cell Line (IC50, nM) K562
HL60 cells = test: HL60 cell proliferation assay (CellTiter-Glo); type: cell-based; conditions: Homo sapiens, HL-60, HL60 cell viability, 72 hours, read-out: Cell Line (IC50, nM) HL60
ABL1 = target: T1, ABL1 (Homo sapiens, UniProt P00519); test: Luminescence-based ABL kinase assay (300 μM ATP), ADP-Glo; type: biochemical
T1 construct: purchased Carna Biosciences
Source text: Compounds were serially diluted in DMSO. […] Luminescence signal positively correlates with kinase activity.

ABL1 (T315I) = ABL1 (T315I) (Homo sapiens, UniProt P00519, T315I); test: as above; type: biochemical
pCRKL in K562 cells = test: pCRKL ELISA assay in K562 cells; type: cell-based; conditions: Homo sapiens, 1.5 h, 90 minutes incubation, read-out: pCRKL ELISA, Cell Line IC50 (nM) K562
Experimental: (§1) K562 or Ba/F3 ABL T315I cells (2.0*10^5 cells/100 μl/well) were seeded in 96 well (Corning, cat #3799). Compounds were dissolved in DMSO, serially diluted in DMSO and then were added, mixed, and incubated for 90 minutes at 37° C., 5% CO2. Following the 90-minute incubation, plates were centrifuged for 5 min at 3000 RPM and supernatant was removed from each well. Cells were washed 3 times with 150 μl PBS prior to addition of 100 μl cell RIPA lysis buffer (Boston BioProducts, cat #BP-115D) supplied with 1× complete ULTRA cocktail inhibitor (Roche, 05892791001) and 1× PhosSTOP Phosphatase Inhibitor Cocktail Tablets (Roche, 04906837001). Cells were incubated with lysis buffer for 1 hour at 4° C. prior to storage at −80C.
(§2) A capture antibody able to detect phosphorylated and non-phosphorylated CRKL (R&D Systems, cat #AF5127) was added to Meso Scale Discovery (MSD) standard bind plates (MSD, cat #L15XA-3) at 5 ug/mL and incubated at 4° C. overnight. The next day, plates were washed with PBS+ 0.05% Tween20 (PBST) and 150 μl of 5% BSA blocking solution was added for 1 hour at room temperature with shaking. Plates were washed with PBST. Lysates were thawed and 30 μl of lysate was added to the MSD plates and incubated for 2 hours at room temperature with shaking. MSD plates were washed with PBST and 30 μl of a detection antibody that binds phosphorylated pCRKL (R&D Systems, cat #MAB6910) was added at 1 ug/mL to each well. Plates were incubated for 1 hour at room temperature with shaking. Plates were washed with PBST prior to addition of 30 μl of a sulfo tagged goat anti mouse detection antibody (MSD cat #R32AC-1). Plates were incubated for 1 hour at room temperature with shaking. Plates were washed with PBST prior to addition of 150 ul of 1×MSD read buffer T (MSD, cat #R92TC-2). Electrochemiluminescence (ECLU) was read on an MSD plate reader (Meso Scale Discovery). The remaining activity by calculated as follows: % Relative activity=100× (ELCUsample−ECLULC)/(ECLUHC−ECLULC). The low and high controls (LC/HC) are generated from lysate from wells without cells or with cells treated with 0.1% DMSO, respectively. IC50 values were calculated using XLFit software using a nonlinear regression model with a sigmoidal dose response and are shown in Table 4 and Table 5 below.

[1] = tested on: pCRKL in Ba/F3 ABL1 (T315I) cells; test: pCRKL ELISA assay in Ba/F3 ABL1 (T315I) cells; type: cell-based; conditions: Mus musculus, BaF3, 1.5 h, 90 minutes incubation, read-out: pCRKL ELISA, Cell Line IC50 (nM) Ba/F3 ABL1 (T315I)
Experimental: as §1, §2

Row | IC50 (K562 cells) | IC50 (HL60 cells) | IC50 (ABL1) | IC50 (ABL1 (T315I)) | IC50 (pCRKL in K562 cells) | IC50 [1] | Compound
1 | 28.6 nM | > 10000 nM | 13.4 nM | 12.9 nM | 61.8 nM | 171 nM | COc1ncc(F)c(OC)c1-c1cc2cc(NC(=O)[C@H]3C[C@@H]3CN3CCN(C)CC3)ncc2n1C (single isomer, unassigned) [Compound 128]
2 | 123 nM | 4150 nM | 39.7 nM | 79.6 nM | 241 nM | 329 nM | COc1ncccc1-c1cc2cc(NC(=O)[C@@H]3C[C@@H]3F)ncc2n1C [Compound 35, (1S,2S)-2-fluoro-N-[2-(2-methoxypyridin-3-yl)-1-methylpyrrolo[2,3-c]pyridin-5-yl]cyclopropane-1-carboxamide]
3 | 27.5 nM | 1350 nM | 11.3 nM | 23.9 nM | 73.2 nM | 248 nM | COc1ncc(F)c(OC)c1-c1cc2cc(NC(=O)[C@@H]3C[C@@H]3F)ncc2n1C [Compound 38, (1S,2S)-2-fluoro-N-[2-(5-fluoro-2,4-dimethoxypyridin-3-yl)-1-methylpyrrolo[2,3-c]pyridin-5-yl]cyclopropane-1-carboxamide]
4 | 33.6 nM | 3780 nM | 36 nM | 71.8 nM | 96.4 nM | 263 nM | COc1ncnc(OC)c1-c1cc2cc(NC(=O)[C@@H]3C[C@@H]3F)ncc2n1C [Compound 39, (1S,2S)-N-[2-(4,6-dimethoxypyrimidin-5-yl)-1-methylpyrrolo[2,3-c]pyridin-5-yl]-2-fluorocyclopropane-1-carboxamide]
5 | 38.7 nM | 3130 nM | 37.1 nM | 54.7 nM | 137 nM | 1140 nM | COc1nc(C)nc(OC)c1-c1cc2cc(NC(=O)[C@@H]3C[C@@H]3F)ncc2n1C [Compound 72, (1S,2S)-N-[2-(4,6-dimethoxy-2-methylpyrimidin-5-yl)-1-methylpyrrolo[2,3-c]pyridin-5-yl]-2-fluorocyclopropane-1-carboxamide]
6 | 11.6 nM | 682 nM | 8.65 nM | 13.6 nM | 45.3 nM | 93.2 nM | COc1ccnc(OC)c1-c1cc2cc(NC(=O)[C@@H]3C[C@@H]3F)ncc2n1C [Compound 75, (1S,2S)-N-[2-(2,4-dimethoxypyridin-3-yl)-1-methylpyrrolo[2,3-c]pyridin-5-yl]-2-fluorocyclopropane-1-carboxamide]
7 | 200 nM | 6240 nM | 46.7 nM | 55.4 nM | 326 nM | 194 nM | COc1ncc(F)cc1-c1cc2cc(NC(=O)[C@@H]3C[C@@H]3F)ncc2n1C [Compound 76, (1S,2S)-2-fluoro-N-[2-(5-fluoro-2-methoxypyridin-3-yl)-1-methylpyrrolo[2,3-c]pyridin-5-yl]cyclopropane-1-carboxamide]
8 | 63 nM | 605 nM | 11.6 nM | 38.8 nM | 99.4 nM | 253 nM | COc1cc(C)nc(OC)c1-c1cc2cc(NC(=O)[C@@H]3C[C@@H]3F)ncc2n1C [Compound 98, (1S,2S)-N-(2-(2,4-dimethoxy-6-methylpyridin-3-yl)-1-methyl-1H-pyrrolo[2,3-c]pyridin-5-yl)-2-fluorocyclopropane-1-carboxamide]
9 | 17.7 nM | 385 nM | 3.98 nM | 7.85 nM | 35.5 nM | 172 nM | COc1nc(N)nc(OC)c1-c1cc2cc(NC(=O)[C@@H]3C[C@@H]3F)ncc2n1C [Compound 103, (1S,2S)-N-(2-(2-amino-4,6-dimethoxypyrimidin-5-yl)-1-methyl-1H-pyrrolo[2,3-c]pyridin-5-yl)-2-fluorocyclopropane-1-carboxamide]
